According to patent US8314138B2, “Pyrazole derivative as SCD1 inhibitors for the treatment of diabetes” (Novartis AG, priority 2006, dated 2012):

What follows are compounds tested against T1, stearoyl-CoA desaturase (SCD1) (Mus musculus, UniProt P13516) (assay: SCD microsomal assay: release of 3H2O from [9,10-3H]stearoyl-CoA in mouse liver microsomes). Conditions: 15 min incubation, 25° C.
T1 construct: Male ICR outbread mice, on a high-carbohydrate, low fat diet; from tissue; host or cells: liver microsomes of male ICR mice on a high-carbohydrate, low fat diet
T1 sequence (P13516 1-355): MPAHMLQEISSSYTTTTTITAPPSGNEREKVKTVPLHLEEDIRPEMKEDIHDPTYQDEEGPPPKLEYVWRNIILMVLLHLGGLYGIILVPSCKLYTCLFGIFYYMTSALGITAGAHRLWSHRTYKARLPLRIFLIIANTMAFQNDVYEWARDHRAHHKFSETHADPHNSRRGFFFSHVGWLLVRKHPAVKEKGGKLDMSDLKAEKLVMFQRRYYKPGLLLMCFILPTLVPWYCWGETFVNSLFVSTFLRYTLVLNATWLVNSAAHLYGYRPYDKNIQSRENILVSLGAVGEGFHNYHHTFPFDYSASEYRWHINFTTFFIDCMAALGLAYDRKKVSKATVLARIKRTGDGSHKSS
Format: biochemical
From the text: The identification of compounds of the invention as SCD inhibitors was readily accomplished using the SCD enzyme and microsomal assay procedure described in Shanklin J. and Summerville C., Proc. Natl. Acad. Sci. USA (1991), Vol. 88, pp. 2510-2514.
Measuring Stearoyl-CoA Desaturase Inhibition Activity of a Test Compound Using Mouse Liver Microsomes
The identification of compounds of the invention as SCD inhibitors was readily accomplished using the SCD microsomal assay procedure described in Shanklin J. and Summerville C., Proc. Natl. Acad. Sci. USA (1991), Vol. 88, pp. 2510-2514, which is incorporated herein by reference in its entirety.
Preparation of Mouse Liver Microsomes:
Male ICR outbread mice, on a high-carbohydrate, low fat diet, under light halothane (15% in mineral oil) anesthesia are sacrificed by exsanguination during periods of high enzyme activity. Livers are immediately rinsed with cold 0.9% NaCl solution, weighed and minced with scissors. All procedures are performed at 4° C. unless specified otherwise. Livers are homogenized in a solution (1/3 w/v) containing 0.25 M sucrose, 62 mM potassium phosphate buffer (pH 7.0), 0.15 M KCl, 15 mM N-acetylcysteine, 5 mM MgCl2, and 0.1 mM EDTA using 4 strokes of a Potter-Elvehjem tissue homogenizer. The homogenate is centrifuged at 10,400×g for 20 min to eliminate mitochondria and cellular debris. The supernatant is filtered through a 3-layer cheesecloth and centrifuged at 105,000×g for 60 min. The microsomal pellet is gently resuspended in the same homogenization solution with a small glass/teflon homogenizer and stored at −70° C. The absence of mitochondrial contamination is enzymatically assessed. The protein concentration is measured using bovine serum albumin as the standard.
Incubation of Mouse Liver Microsomes with Test Compounds:
Desaturase activity is measured as the release of ^3H2O from [9,10-^3H]stearoyl-CoA. Reactions per assay point conditions are as follows: 2 μL 1.5 mM stearoyl-CoA, 0.25 μL 1 mCi/mL ^3H stearoyl CoA, 10 μL 20 mM NADH, 36.75 μL 0.1 M PK buffer (K2HPO4/NaH2PO4, pH 7.2). The test compound or control solution is added in a 1 μL volume. Reactions are started by adding 50 μL of microsomes (1.25 mg/mL). The plates are mixed and after 15 min incubation on a heating block (25° C.), the reactions are stopped by the addition of 10 μL 60% PCA. An aliquot of 100 μL is then transferred to a filter plate pretreated with charcoal and the plate centrifuged at 4000 rpm for 1 minute. The flow through containing the ^3H2O released by the SCD1 desaturation reaction is added to scintillation fluid and the radioactivity measured in a Packard TopCount. The data is analyzed to identify the IC50 for test compounds and reference compounds. […] The activity was defined in terms of % SCD enzyme activity remaining at the desired concentration of the test compound or as the IC50 concentration. The IC50 (affinity) of the example compounds toward the stearoyl-CoA desaturase is comprised between around 20 μM and 0.0001 μM or between around 5 μM and 0.0001 μM or between around 1 μM and 0.0001 μM.

SMILES	IC50 [nM]
Cc1nc(-c2cncc(CCc3ccccc3)n2)sc1C(=O)NCc1ccccc1 [Example 4, 4-methyl-2-(6-phenethyl-pyrazin-2-yl)-thiazole-5-carboxylic acid benzylamide]	42
Cc1nc(-c2cncc(N(C)CCCc3ccccc3)n2)sc1C(=O)NCc1ccc(F)cc1 [Example 16, 4-methyl-2-{6-[methyl-(3-phenyl-propyl)-amino]-pyrazin-2-yl}-thiazole-5-carboxylic acid 4-fluoro-benzylamide]	164
COc1ccc(CN(C)c2cncc(-c3nc(C)c(C(=O)NCc4ccc(F)cc4)s3)n2)cc1 [Example 22, 2-{6-[(4-methoxy-benzyl)-methyl-amino]-pyrazin-2-yl}-4-methyl-thiazole-5-carboxylic acid 4-fluoro-benzylamide]	98
Cc1nc(-c2cncc(N(C)Cc3ccc(F)cc3)n2)sc1C(=O)NCc1ccccc1 [Example 29, 2-{6-[(4-fluoro-benzyl)-methyl-amino]-pyrazin-2-yl}-4-methyl-thiazole-5-carboxylic acid benzylamide]	124
Cc1nc(-c2ccn(CCCc3ccccc3)n2)sc1C(=O)NCc1ccccc1 [Example 37, 4-methyl-2-[1-(3-phenyl-propyl)-1H-pyrazol-3-yl]-thiazole-5-carboxylic acid benzylamide]	71
Cc1nc(-c2ccn(Cc3ccc(C#N)cc3)n2)sc1C(=O)NCc1cccnc1 [Example 52, 2-[1-(4-cyano-benzyl)-1H-pyrazol-3-yl]-4-methyl-thiazole-5-carboxylic acid (pyridin-3-ylmethyl)amide]	74
Cc1nc(-c2ccn(Cc3ccc(S(C)(=O)=O)cc3)n2)sc1C(=O)NCc1cccnc1 [Example 66, 2-[1-(4-methanesulfonyl-benzyl)-1H-pyrazol-3-yl]-4-methyl-thiazole-5-carboxylic acid (pyridin-3-ylmethyl)amide]	172
Cc1nc(-c2ccn(CCN(C)c3ccccc3)n2)sc1C(=O)NCc1cccnc1 [Example 79, 4-methyl-2-{1-[2-(methyl-phenylamino)-ethyl]-1H-pyrazol-3-yl}-thiazole-5-carboxylic acid (pyridin-3-ylmethyl)amide]	49
Cc1nc(-c2ccn(CCC3CC3)n2)sc1C(=O)NCc1ccc(F)cc1 [Example 85, 2-[1-(2-cyclopropyl-ethyl)-1H-pyrazol-3-yl]-4-methyl-thiazole-5-carboxylic acid 4-fluoro-benzylamide]	147
COc1ccc(CCn2ccc(-c3nc(C)c(C(=O)NCc4ccc(F)cc4)s3)n2)cc1 [Example 87, 2-{1-[2-(4-Methoxy-phenyl)-ethyl]-1H-pyrazol-3-yl}-4-methyl-thiazole-5-carboxylic acid 4-fluoro-benzylamide]	96
